# Key:
# NLuc-hACKR3 = molecular target: T1, NLuc-hACKR3 (Homo sapiens, UniProt P25106); experiment: NanoBRET ligand binding assay (CXCL12-AF647 displacement); conditions: 0.3 nM CXCL12-AF647, HEK293T membranes; read-out: IC50, displacement of CXCL12-A647 binding to NLuc-hACKR3
# T1 construct: expressed in transfected cells; host or cells: HEK293T (membranes, transient expression)
# Protocol: Membranes of HEK293T cells that transiently expressed the NLuc-hACKR3 or HA-hACKR3 were produced as previously described.[23] Briefly, 2 million HEK293T cells were seeded per […] and were transfected the following day using a DNA/PEI-mix containing 0.25 μg plasmid DNA encoding for the ACKR3, 4.75 μg pcDEF3 plasmid DNA and 30 μg linear PEI. Two days after transfection, cells were collected in PBS (137 mM NaCl, 2.57 mM KCl, 1.5 mM KH2PO4, 8 mM Na2HPO4) and pelleted by centrifugation. Cell pellets were resuspended in ice-cold membrane buffer (15 mM Tris, 0.3 mM EDTA, 2 mM MgCl2, pH 7.4 at 4 °C) and dounce-homogenized on ice by plunging the pestle 10 times with 1500 rpm. […]
# All dilutions were prepared in HBSS supplemented with 0.2% BSA. […] Total light intensity was measured at 460 nm wavelength with 80 nm bandwidth and separately for wavelengths ≥610 nm using the PHERAstar-FSX (BMG Labtech) with a dual emission filter. […]
# The sigmoidal concentration-dependent displacement of binding of the probes [^3H]VUF15485 and CXCL12-A647 by unlabeled ligands were analyzed using GraphPad Prism 8, by fitting a one-site binding model to the data, to determine the pIC50. Mean pIC50 values were determined by averaging fitted values from individual experiments. […] Mean pEC50 values and pIC50 values were determined by averaging fitted values from individual experiments. […]
# ACKR3 [1] = molecular target: T2, ACKR3 (Homo sapiens, UniProt P25106); experiment: BRET ACKR3-Rab5a proximity (early endosome translocation) in HEK293T cells; format: cell-based; conditions: for EC50: * VUF16840 as inverse agonist, read-out: Rab5a BRET pEC50 (converted)
# T2 construct: expressed in transfected cells; host or cells: HEK293T
# T2 sequence (P25106 whole entry): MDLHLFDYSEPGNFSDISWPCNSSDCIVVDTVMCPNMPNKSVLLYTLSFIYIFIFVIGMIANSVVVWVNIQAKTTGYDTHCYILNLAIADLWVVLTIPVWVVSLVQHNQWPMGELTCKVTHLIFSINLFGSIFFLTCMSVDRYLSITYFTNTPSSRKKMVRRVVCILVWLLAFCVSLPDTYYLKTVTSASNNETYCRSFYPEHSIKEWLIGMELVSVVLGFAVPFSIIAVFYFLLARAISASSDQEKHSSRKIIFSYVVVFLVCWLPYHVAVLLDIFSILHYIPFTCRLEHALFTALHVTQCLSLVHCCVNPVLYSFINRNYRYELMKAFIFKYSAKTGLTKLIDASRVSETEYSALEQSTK
# Protocol: (§1) For 1·10^6 HEK293T cells, a transfection mix consisting of 2 μg plasmid DNA, 12 μg linear PEI in a total volume of 200 μL 150 mM NaCl was made and thoroughly vortexed. The transfection mix was incubated for 15 minutes and consequently added to a cell suspension with a final concentration of 3·10^5 cells/mL. For functional studies this cell suspension was immediately transferred to a poly-L-lysine-coated white 96-well plate, with 3·10^4 cells per well. […] For BRET-based membrane localization experiments, the 2 μg plasmid DNA consisted of ACKR3-NL (0.05 μg), mVenus-CAAX (0.25 μg), and pcDEF3 vector DNA without insert (1.7 μg).
# (§2) The sigmoidal concentration-dependent displacement of binding of the probes [^3H]VUF15485 and CXCL12-A647 by unlabeled ligands were analyzed using GraphPad Prism 8, by fitting a one-site binding model to the data, to determine the pIC50. Mean pIC50 values were determined by averaging fitted values from individual experiments. Graphs depict the pooled data of all experiments. Similarly, sigmoidal, ligand-induced concentration-dependent activation or inhibition of the proximity between ACKR3 and the protein of interest was analyzed using GraphPad Prism 8, by fitting a 3-parameter concentration-response model to the data, to determine pEC50/pIC50 values. Mean pEC50 values and pIC50 values were determined by averaging fitted values from individual experiments. Graphs depict the pooled data of all experiments, for which values are normalized, per experiment, to the fold difference compared with basal signal.
# Fig. 5 Inhibition of both constitutive as well as agonist-induced ACKR3 activity by VUF16840. […] The resulting proximity between ACKR3 and β-arrestin1 (A, E), GRK2 (B, F), or Rab5a (C, G) was determined by bioluminescence resonance energy transfer. Furthermore, an interaction between clathrin A and β-arrestin2 was measured by NLuc complementation, as was determined by quantifying the relative light units (D, H). […]
# ACKR3 [2] = molecular target: T2, ACKR3; experiment: NanoBiT clathrin A/β-arrestin2 interaction in ACKR3-expressing HEK293T cells; format: cell-based
# Protocol: as §1
# Two days after transfection (vide supra), medium was aspirated and cells were reconstituted in HBSS with 0.05% BSA. […] After treating the cell with ligand furimazine was added (310 times diluted from stock concentration). Cells were incubating at 37 °C for another 3 minutes before detection of bioluminescent intensities.
# Bioluminescence was measured using the PHERAstar-FSX and is a measure for the relative proximity of LgBiT- and SmBiT-tagged proteins and thus the occurrence of investigated protein–protein interaction.[38]
# Fig. 5 Inhibition of both constitutive as well as agonist-induced ACKR3 activity by VUF16840. HEK293T cells were stimulated with increasing concentrations of VUF15485 or VUF16840 only (A–D), or increasing concentrations of VUF16840 in the presence of 100 nM VUF15485 (E–H). The resulting proximity between ACKR3 and β-arrestin1 (A, E), GRK2 (B, F), or Rab5a (C, G) was determined by bioluminescence resonance energy transfer. Furthermore, an interaction between clathrin A and β-arrestin2 was measured by NLuc complementation, as was determined by quantifying the relative light units (D, H). Depicted data is normalized as fold-basal and represents the mean ± SD of N experiments with triplicate measurements per experiment. N is specified in Supplemental Table 1.
# ACKR3 [3] = molecular target: T2, ACKR3; experiment: BRET β-arrestin2 recruitment to hACKR3 in HEK293T cells; format: cell-based; conditions: for EC50: * VUF16840 as inverse agonist, mean ± SD (N), read-out: β-arrestin2 BRET pEC50 (converted)
# Protocol: For bioluminescence resonance energy transfer (BRET) experiments, several BRET acceptor constructs were used that consist of the pcDEF3 vector with either GRK2 (NCBI: NM_174710.2), β-arrestin1 (NCBI: NM_174243.3), or β-arrestin2 (NCBI: XM_005220181.4) fused at the C-terminus with a SpeI/NotI linker to mVenus (NCBI: KP666136.1), as previously described.[34]
# as §1
# as §2, with “Mean” for “The sigmoidal concentration-dependent displacement of binding of the probes [^3H]VUF15485 and CXCL12-A647 by unlabeled ligands were analyzed using GraphPad Prism 8, by fitting a one-site binding model to the data, to determine the pIC50. Mean”
# T1 sequence (P25106 whole entry): as above
IC50 (NLuc-hACKR3) [nM],EC50 (ACKR3 [1]) [nM],"EC50 (ACKR3 [2]; NanoBiT, read-out: EC50, clathrin A/β-arrestin2 interaction) [nM]",EC50 (ACKR3 [3]) [nM],"IC50 (ACKR3 [1]; versus 100 nM VUF15485, read-out: Rab5a BRET, Inhibition by VUF16840 (pIC50) (converted)) [nM]","EC50 (ACKR3 [2]; * VUF16840 as inverse agonist, read-out: Clathrin A/ β-arrestin2 binding pEC50 (converted)) [nM]","IC50 (ACKR3 [2]; versus 100 nM VUF15485, read-out: Clathrin A/ β-arrestin2 binding, Inhibition by VUF16840 (pIC50) (converted)) [nM]","IC50 (ACKR3 [3]; constitutive, no agonist, read-out: IC50, reduction of β-arrestin2 recruitment to hACKR3 (BRET)) [nM]","IC50 (ACKR3 [3]; versus 100 nM CXCL11, read-out: β-arrestin2 BRET, Inhibition by VUF16840 (pIC50) (converted)) [nM]","IC50 (ACKR3 [3]; versus 100 nM CXCL12, read-out: β-arrestin2 BRET, Inhibition by VUF16840 (pIC50) (converted)) [nM]","IC50 (ACKR3 [3]; versus 100 nM VUF15485, read-out: β-arrestin2 BRET, Inhibition by VUF16840 (pIC50) (converted)) [nM]",Structure (SMILES)
28,7.94,6,12.6,,,,,,,,"COc1cc(C(=O)N(CCC2CCCN2C)CC(C)=Cc2ccccc2F)cc(OC)c1OC (centres unmarked) [VUF15485, reference compound]"
7,1.58,,10,5.01,10,50.1,10,2,2.51,10,COc1ccccc1CCNC(=O)C1CN(C2CCCCC2)CCC1NC(=O)c1cc(-c2ccc(F)cc2F)on1 (centres unmarked) [VUF16840]
